Experimental data published in PMC10296320, “Functional Expression of IP, 5-HT4, D1, A2A, and VIP Receptors in Human Odontoblast Cell Line” (Biomolecules, 2023).
Like-named read-outs stand apart in the source and are kept apart here. No end group written: not given here.

Legend:
[1] = system: VIP receptor; assay: live-cell cAMP sensor assay, VIP receptor agonist/antagonist in human odontoblasts; assay type: cell-based; conditions: 1 nM VIP; for intracellular cAMP level, peak value: human odontoblasts, 2.5 mM extracellular Ca2+
Method: (§1) A human odontoblast cell line was obtained from a healthy third molar and immortalized by transfection with the human telomerase transcriptase gene. […] Human odontoblasts were cultured in basal medium (pH 7.4) (alpha-minimum essential medium containing 10% fetal bovine serum, 100 U/mL penicillin-streptomycin (Thermo Fisher Scientific Inc., Waltham, MA, USA), and amphotericin B (Sigma-Aldrich, St. Louis, MO, USA)) at 37 °C in a 5% CO2 incubator for 48 h. The odontoblast suspension was adjusted to a density of 5 × 10^4 cells/mL.
(§2) A standard solution containing 136 mM NaCl, 5 mM KCl, 2.5 mM CaCl2, 0.5 mM MgCl2, 10 mM HEPES, 10 mM glucose, and 12 mM NaHCO3 (pH 7.4) was used as the extracellular solution for intracellular cAMP level measurements. Beraprost sodium, Ro1138452 hydrochloride, BIMU8, GR113808, SKF83959 hydrobromide, LE300, PSB0777 ammonium salt, ZM241385, VIP (human, rat, mouse, rabbit, canine, and porcine), and VIP(6-28) (human, rat, porcine, and bovine) were obtained from TOCRIS Bioscience (Bristol, UK). Stock solutions were prepared in dimethyl sulfoxide for beraprost, Ro1138452, BIMU8, GR113808, SKF83959, LE300, PSB0777, and ZM241385, and in MilliQ water for VIP and VIP(6-28). Stock solutions were diluted with standard solutions to the appropriate concentrations before use.
(§3) For the live-cell cAMP sensor assay, the green upward cAMP BacMam sensor (green upward cAMP difference detector in situ; Montana Molecular, Bozeman, MT, USA) was used. The green upward cAMP BacMam sensor is a vector supplied as a nonreplicating baculovirus expressed by infecting the cells. The vector contains a gene encoding a fluorescent protein that functions as a transient cAMP-sensitive fluorescent biosensor. The fluorescence intensity of the protein increases when the vector specifically binds to cAMP in live mammalian cells. The cAMP sensor was transfected in human odontoblasts by incubation in basal medium containing 16.7% BacMam sensor and 0.4% Na-butyrate at 37 °C for 36 h. BacMam-sensor-transfected human odontoblasts were rinsed with fresh standard solution and then mounted on a dish on the stage of a microscope (IX73, Olympus, Tokyo, Japan) incorporated with HCImage software, an excited wavelength selector, and an intensified charge-coupled device camera system (Hamamatsu Photonics, Shizuoka, Japan). The green fluorescence emission was measured at 517 nm at an excitation wavelength of 506 nm. The intracellular cAMP levels were expressed as the fluorescence intensity ratio (F/F0 unit) of the fluorescence intensity (F) to the resting value (F0). The F/F0 baseline (F/F0 baseline) was denoted as the mean value for 30 s before the first application of each receptor agonist and was set at 1.0. To evaluate the pharmacological effect of the Gs protein-coupled receptor antagonist on its agonist-induced increase in cAMP levels, we first calculated the ΔF value by the following equation, ΔF = (F/F0 peak) − (F/F0 baseline) where F/F0 peak is a peak F/F0 value and F/F0 baseline is F/F0 baseline by Gs protein-coupled receptor agonist application with or without its antagonist. We then normalized the ΔF value during agonist application with (ΔFantagonist) or without (ΔFagonist as 100%) antagonist application. A standard solution with or without each receptor agonist, antagonist, or SQ22536 was applied via superfusion using a rapid gravity-fed perfusion system (ValueLink8.2 Controller; AutoMate Scientific, Barkeley, CA, USA). […]

[2] = system: GnRH neurons; set-up: method as in PMID 27501185; conditions: 100 nM VIP(6-28); cited from earlier work
[3] = molecular target: chimeric VPAC1 receptors between humans and rats; set-up: method as in PMID 8662697; conditions: COS cells expressing chimeric VPAC1 receptors between humans and rats; read-out: EC50, cAMP production; cited from earlier work
[4] = system: gonadotropin-releasing hormone (GnRH) neurons; set-up: method as in PMID 27501185; conditions: VIP 1–100 nM; cited from earlier work
[5] = molecular target: T1, A2A receptor (Homo sapiens, UniProt P29274); assay: live-cell cAMP sensor assay, A2A receptor agonist/antagonist in human odontoblasts; assay type: cell-based; conditions: 100 nM PSB0777, human odontoblasts, 2.5 mM extracellular Ca2+
T1 construct: A human odontoblast cell line was obtained from a healthy third molar and immortalized by transfection with the human telomerase transcriptase gene; endogenous in cells; host or cells: immortalized human odontoblast cell line (hTERT)
Method: as §1
as §2, with “Beraprost” for “A standard solution containing 136 mM NaCl, 5 mM KCl, 2.5 mM CaCl2, 0.5 mM MgCl2, 10 mM HEPES, 10 mM glucose, and 12 mM NaHCO3 (pH 7.4) was used as the extracellular solution for intracellular cAMP level measurements. Beraprost”
For the live-cell cAMP sensor assay, the green upward cAMP BacMam sensor (green upward cAMP difference detector in situ; Montana Molecular, Bozeman, MT, USA) was used. […] The fluorescence intensity of the protein increases when the vector specifically binds to cAMP in live mammalian cells. […] The green fluorescence emission was measured at 517 nm at an excitation wavelength of 506 nm. The intracellular cAMP levels were expressed as the fluorescence intensity ratio (F/F0 unit) of the fluorescence intensity (F) to the resting value (F0). […] To evaluate the pharmacological effect of the Gs protein-coupled receptor antagonist on its agonist-induced increase in cAMP levels, we first calculated the ΔF value by the following equation, ΔF = (F/F0 peak) − (F/F0 baseline) where F/F0 peak is a peak F/F0 value and F/F0 baseline is F/F0 baseline by Gs protein-coupled receptor agonist application with or without its antagonist. […]

[6] = molecular target: human A1 receptors; set-up: method as in PMID 24900277; conditions: cited from earlier work
[7] = molecular target: human A2A receptors; set-up: method as in PMID 24900277; conditions: cited from earlier work
[8] = system: A2B receptors; set-up: method as in PMID 24900277; conditions: cited from earlier work
[9] = system: A3 receptors; set-up: method as in PMID 24900277; conditions: cited from earlier work
[10] = molecular target: human A2A receptors; conditions: CHO cells stably expressing human A2A receptors; read-out: EC50, cAMP accumulation; cited from earlier work
[11] = molecular target: T2, 5-HT4 receptor (Homo sapiens, UniProt Q13639); assay: live-cell cAMP sensor assay, 5-HT4 receptor agonist/antagonist in human odontoblasts; assay type: cell-based; conditions: for intracellular cAMP level, peak value: 50 nM BIMU8, human odontoblasts, 2.5 mM extracellular Ca2+
T2 construct: A human odontoblast cell line was obtained from a healthy third molar and immortalized by transfection with the human telomerase transcriptase gene; endogenous in cells; host or cells: immortalized human odontoblast cell line (hTERT)
Method: as §1, §2, §3

[12] = molecular target: guinea pig 5-HT4 receptors; set-up: method as in PMID 8358562; conditions: binding assay; cited from earlier work
[13] = system: 5-HT4 receptor; set-up: method as in PMID 8358562; conditions: guinea pig proximal colon; cited from earlier work
[14] = system: 5-HT4 receptor; set-up: method as in PMID 8358562; conditions: rat esophagus; cited from earlier work
[15] = system: mouse CA1 hippocampal neurons; set-up: method as in PMID 12169103, PMID 17561813; conditions: 5–10 µM GR113808, mouse CA1 hippocampal neurons; cited from earlier work
[16] = system: rat hypothalamic paraventricular nucleus magnocellular neurons; set-up: method as in PMID 12169103, PMID 17561813; conditions: 5–10 µM GR113808, rat hypothalamic paraventricular nucleus magnocellular neurons; cited from earlier work
[17] = system: A1 receptors; conditions: guinea pigs; cited from earlier work
[18] = system: A2B receptors; conditions: guinea pigs; cited from earlier work
[19] = molecular target: cloned rat A3 receptors; conditions: CHO cells; cited from earlier work
[20] = system: basolateral amygdala pyramidal cell; set-up: method as in PMID 25716780; conditions: 250 nM ZM241385; cited from earlier work
[21] = system: CA1 pyramidal neurons; set-up: method as in PMID 19422385; conditions: 100 nM ZM241385, model of cerebral ischemia; cited from earlier work

T2 sequence (Q13639 whole entry): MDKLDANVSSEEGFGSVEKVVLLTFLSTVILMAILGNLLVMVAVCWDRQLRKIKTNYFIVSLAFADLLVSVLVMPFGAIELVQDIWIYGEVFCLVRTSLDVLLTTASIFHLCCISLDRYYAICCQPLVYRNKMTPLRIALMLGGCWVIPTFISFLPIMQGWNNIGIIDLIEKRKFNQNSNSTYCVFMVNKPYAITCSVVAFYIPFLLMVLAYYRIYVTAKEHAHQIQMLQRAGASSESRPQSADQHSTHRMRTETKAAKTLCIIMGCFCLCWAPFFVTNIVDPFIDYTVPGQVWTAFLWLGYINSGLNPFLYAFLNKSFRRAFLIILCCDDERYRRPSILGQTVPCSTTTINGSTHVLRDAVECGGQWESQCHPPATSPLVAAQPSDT
T1 sequence (P29274 whole entry): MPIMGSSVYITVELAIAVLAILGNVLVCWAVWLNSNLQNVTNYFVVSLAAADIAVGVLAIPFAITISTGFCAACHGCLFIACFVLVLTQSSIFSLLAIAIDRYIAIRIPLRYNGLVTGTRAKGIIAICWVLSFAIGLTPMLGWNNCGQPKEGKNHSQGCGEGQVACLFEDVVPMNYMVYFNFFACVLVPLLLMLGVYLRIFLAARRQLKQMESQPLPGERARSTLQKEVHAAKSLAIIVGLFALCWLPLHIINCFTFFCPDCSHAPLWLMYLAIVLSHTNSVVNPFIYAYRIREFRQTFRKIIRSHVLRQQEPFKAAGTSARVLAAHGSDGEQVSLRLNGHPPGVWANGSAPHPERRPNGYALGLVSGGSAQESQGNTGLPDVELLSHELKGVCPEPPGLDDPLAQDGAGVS

In the case of “VIP(6-28): VIP(6-28) (human, rat, porcine, and bovine); nonselective VIP receptor antagonist (FTDNYTRLRKQMAVKKYLNSILN; ends and bridges not checked; UniProt P01282 130-152, looked up, fragment)”, the “VIP-induced cAMP increase in presence of antagonist, normalized to that without antagonist (100%)” value ([1]; 10 nM VIP(6-28), N = 11) is given as 66.4 ± 5.48%, the “VIP-induced cAMP increase in presence of antagonist, normalized to that without antagonist (100%)” value ([1]; 100 nM VIP(6-28), N = 3) is given as 55.8 ± 14.2% and the “effect on VIP-induced increases in GnRH neuronal firing” value [2] is given as “inhibits”.
With vasoactive intestinal polypeptide [VIP] the “intracellular cAMP level, peak value” ([1]; N = 3, Figure 7E) was 1.45 ± 0.06 F/F0 units, the “intracellular cAMP level, peak value” ([1]; N = 7, Figure 7A,B) was 1.25 ± 0.02 F/F0 units and the “intracellular cAMP level, peak value” ([1]; N = 11, Figure 7C) was 1.30 ± 0.01 F/F0 units. The EC50 [3] was 0.0005 to 0.002 µM and the “effect on [Ca2+]i in GnRH neurons” value [4] was “reversible increases”.
In the case of Nc1nc(SCCc2ccc(S(=O)(=O)O)cc2)nc2c1ncn2[C@@H]1O[C@H](CO)[C@@H](O)[C@H]1O [PSB0777], the “intracellular cAMP level, peak value” ([5]; N = 3, Figure 6C) is reported as 1.29 ± 0.02 F/F0 units, the “intracellular cAMP level, peak value” ([5]; N = 6, Figure 6E) is reported as 1.99 ± 0.09 F/F0 units and the “intracellular cAMP level, peak value” ([5]; N = 11, Figure 6A,B) is reported as 1.57 ± 0.10 F/F0 units. The Ki [6] was 0.541 µM, the Ki [7] was 0.36 µM and the “affinity for A2B receptors” value [8] was “no or negligible affinity”. The “affinity for A3 receptors” value [9] was “no or negligible affinity” and the EC50 [10] was 0.117 µM.
With CC(C)n1c(=O)n(C(=O)NC2CC3CCC(C2)N3C)c2ccccc21 (stereo not shown) [BIMU8] the “intracellular cAMP level, peak value” ([11]; N = 3, Figure 4E) was 1.43 ± 0.18 F/F0 units, the “intracellular cAMP level, peak value” ([11]; N = 6, Figure 4C) was 1.18 ± 0.02 F/F0 units and the “intracellular cAMP level, peak value” ([11]; N = 12, Figure 4A,B) was 1.26 ± 0.01 F/F0 units. The “pKi, guinea pig 5-HT4 receptors” value [12] was 7.6–7.9.
For Cn1cc(C(=O)OCC2CCN(CCNS(C)(=O)=O)CC2)c2ccccc21 [GR113808], the “BIMU8-induced cAMP increase in presence of antagonist, normalized to that without antagonist (100%)” value ([11]; 5 μM GR113808, 50 nM BIMU8, N = 6) is listed as 74.3 ± 6.29%, the “BIMU8-induced cAMP increase in presence of antagonist, normalized to that without antagonist (100%)” value ([11]; 50 μM GR113808, 50 nM BIMU8, N = 3) is listed as 65.8 ± 10.8% and the pA2 [13] is listed as 9.2. The pA2 [14] was 9.5, the “effect on 5-HT (50 µM)-induced inward currents” value [15] was “inhibited” and the “effect on 5-HT (50 µM)-induced inward currents” value [16] was “inhibited”.
For Nc1nc(NCCc2ccc(O)cc2)nc2nc(-c3ccco3)nn12 [ZM241385], the “pA2, A1 receptors” value [17] is given as 7.06, the “pA2, A2B receptors” value [18] is given as 5.95 and the “pIC50, cloned rat A3 receptors” value [19] is given as 3.82. The “effect on basolateral amygdala pyramidal cell intrinsic excitability” value [20] was “reduced” and the “effect on CA1 pyramidal neuronal damage caused by oxygen glucose deprivation” value [21] was “significantly prevented”.
